Reference: patent US4634702A, “Quinoxalinemethanol compounds for combatting swine dysentery and as growth promoting factors, method of preparation, and compositions containing them” (priority 1983, dated 1987)
Values after ≈ are worked out from the molar mass of the structure shown.

Experiments:
Treponema hyodysenteriae = experiment: in vitro minimum inhibitory concentration / activity against Treponema hyodysenteriae; assay type: cell-based
Description: Compound G 8 has been tested "in vitro" against Treponema hyodysenteriae by a known technique. The minimum inhibitory concentration (the lowest concentration of compound in a dilution series where growth is inhibited) was 0.1 μg/ml.

[1] = Acute toxicity of G 8 in female mice; assay type: in vivo, mouse
Description: (§1) Furthermore, G8 compound was tested for acute toxicity by several modes of administration in four species, namely mouse, rat, guinea pig and rabbit. […] The test results are given below in tables 1, 2, 3 and 4.
Acute toxicity of G 8 in female mice

[2] = Acute Toxicity of G 8 in the Rat; assay type: in vivo; details: for Dead/Treated within 21 days / Body Weight (m ± SEM), Termination: first experiment
Description: as §1
Acute Toxicity of G 8 in the Rat

[3] = Acute toxicity of G 8 in the guinea pig by oral administration; assay type: in vivo
Description: as §1
Acute toxicity of G 8 in the guinea pig by oral administration

[4] = Acute toxicity of G 8 in the rabbit by esophageal administration; assay type: in vivo
Description: as §1
Acute toxicity of G 8 in the rabbit by esophageal administration

[5] = Subacute toxicity of G 8 in the mouse; assay type: in vivo; details: for SGPT / SGOT: 1 g/kg/day, 24 hrs. after last dose
Description: (§2) In view of the favorable acute toxicity data, compound G 8 was administered orally in sub-acute, but relatively large doses, to mice and rats for 15 days.
Subacute toxicity of G 8 in the mouse
Daily dose: 500 mg. G 8 by gastric gavage for 15 days
Daily dose: 1 g/kg/day for 15 days
b. SGOT and SGPT (24 hrs. after last dose)

[6] = Subacute toxicity of G 8 in female rats; assay type: in vivo, rat; details: 2 g/kg/day, gastric gavage, 21 days
Description: as §2
Subacute toxicity of G 8 in female rats
Daily dose: […] of G 8 in female rats by gastric
Daily dose: 2 g/kg/day of G 8 by gastric gavage for 21 days

[7] = Chronic toxicity in female mice; assay type: in vivo
Source text: Chronic toxicity has been studied in female mice.

[8] = teratogenetic study with male and female mice and rats; assay type: in vivo
Description: Furthermore, teratogenetic study was conducted with male and female mice and rats.

swine dysentery = swine dysentery in swine herd fed G 8 in rations; assay type: in vivo; details: 400 g/ton in rations, herd with dysentery
Description: Compound G 8 is mixed with swine feed rations at a level of 200 g/ton and was fed to swine housed in an area where there has been a previous outbreak of swine dysentery. Another herd was housed in a similar area, where there has been a previous outbreak of dysentery. They were fed the same rations as the first herd, but with no G 8 or other drug.
Many members of the herd developed symptoms of dysentery. G 8 was then added with the rations at a level of 400 g/ton.

[9] = growth promotion in baby-swines fed G 8 in rations; assay type: in vivo, swine
Description: The effect of compound G 8 was tested in feed rations for baby-swines.
Compound G 8 was added at a dosage level of 100 g/ton of feed. Five replicate groups of 10 animals (5 males and 5 females), age one day, were fed the ration containing G 8 and compared to 5 replicate groups of animals (5 males and 5 females) which received the same ration but without G 8.
The test period was 28 days.

[10] = acute toxicity by several modes of administration in four species (overall); assay type: in vivo, guinea pig and rabbit; details: mouse, rat, guinea pig, rabbit
Description: as §1

SMILES: COc1ccc(O)c(C(O)c2c[n+]([O-])c3ccccc3[n+]2[O-])c1 (centres unmarked) [G 8, quinoxalyl-N^1,N^4-dioxide-2-hydroxy-5-methoxy-phenylcarbinol]
- action against Treponema hyodysenteriae (specificity) (Treponema hyodysenteriae): clearly specific action against Treponema hyodysenteriae
- MIC (Treponema hyodysenteriae; Brachyspira hyodysenteriae, read-out: minimum inhibitory concentration): 0.1 µg/mL (≈ 0.318 µM)
- Dead/Treated animals ([1]; endoperitoneal, 250 mg/kg, after 7 days): 0/18
- Dead/Treated animals ([1]; endoperitoneal, 500 mg/kg, after 7 days): 6/12
- Dead/Treated animals ([1]; endoperitoneal, 1000 mg/kg, after 2 days): 6/6
- Dead/Treated animals ([1]; endoperitoneal, 1000 mg/kg, after 7 days): 6/6
- Dead/Treated animals ([1]; endoperitoneal, 2000 mg/kg, after 1 day): 6/6
- Dead/Treated animals ([1]; endoperitoneal, 2000 mg/kg, after 7 days): 6/6
- Dead/Treated animals ([1]; oral, 1000 mg/kg, after 7 days): 0/12
- Dead/Treated animals ([1]; oral, 2000 mg/kg, after 7 days): 0/12
- Dead/Treated animals ([1]; oral, 4000 mg/kg, after 4 days): 1/12
- Dead/Treated animals ([1]; oral, 4000 mg/kg, after 7 days): 1/12
- Dead/Treated within 7 days ([2]; cumulative data regardless of animal sex, intraperitoneal, 500 mg/kg): 4/16
- Dead/Treated within 7 days ([2]; cumulative data regardless of animal sex, oral, 4000 mg/kg): 0/16
- Dead/Treated within 21 days ([2]; female, endoperitoneal, 500 mg/kg): 2/4
- Dead/Treated within 21 days ([2]; female, oral, 4000 mg/kg): 0/4
- Body Weight (m ± SEM), Termination ([2]; female, oral, 4000 mg/kg, start 201.2 ± 4.2, vehicle 189.2 ± 3.9 to 230.0 ± 10.5): 238.2 ± 12.1 g
- Dead/Treated within 21 days ([2]; male, endoperitoneal, 500 mg/kg): 1/4
- Body Weight (m ± SEM), Termination ([2]; male, endoperitoneal, 500 mg/kg, start 234.0 ± 6.2, vehicle 230.0 ± 5.7 to 324.0 ± 8.7): 314.3 ± 10.3 g
- Dead/Treated within 21 days ([2]; male, oral, 4000 mg/kg): 0/4
- Body Weight (m ± SEM), Termination ([2]; male, oral, 4000 mg/kg, start 234.5 ± 13.8, vehicle 233.7 ± 3.7 to 331.0 ± 0.5): 288.7 ± 13.8 g
- Dead/Treated within 7 days ([2]; second experiment, female, intraperitoneal, 500 mg/kg): 0/4
- Body weight (±SE), Termination ([2]; second experiment, female, intraperitoneal, 500 mg/kg, start 232.5 ± 5.9): 218.2 ± 7.0 g
- Dead/Treated within 7 days ([2]; second experiment, female, oral, 4000 mg/kg): 0/4
- Body weight (±SE), Termination ([2]; second experiment, female, oral, 4000 mg/kg, start 252.0 ± 16.6): 253.5 ± 12.1 g
- Dead/Treated within 7 days ([2]; second experiment, male, intraperitoneal, 500 mg/kg): 2/4
- Dead/Treated within 7 days ([2]; second experiment, male, oral, 4000 mg/kg): 0/4
- Body weight (±SE), Termination ([2]; second experiment, male, oral, 4000 mg/kg, start 222.5 ± 6.2): 231.7 ± 15.7 g
- Dead/Treated within 21 days ([3]; 500 mg/kg): 0/4
- Dead/Treated within 21 days ([3]; 1000 mg/kg): 1/4
- Dead/Treated within 21 days ([3]; 2000 mg/kg): 5/6
- Dead/Treated within 21 days ([3]; 4000 mg/kg): 6/6
- Dead/Treated within 7 days ([4]; 500 mg/kg): 0/2
- Dead/Treated within 7 days ([4]; 1000 mg/kg): 0/4
- Body weight (m ± SE), Termination ([4]; 1000 mg/kg, start 2037 ± 104.3, vehicle 2135 ± 75 to 2262 ± 215): 1922.5 ± 71.5 g
- Dead/Treated within 7 days ([4]; 2000 mg/kg): 0/2
- Body weight, Termination ([4]; 2000 mg/kg, start 2250-2150): 2180 + 2140 g
- Dead/Treated ([5]; 500 mg/kg/day, gastric gavage, 15 days): 0/10
- Fresh organ to body weight ratio, Kidneys ([5]; 500 mg/kg/day, gastric gavage, 15 days, vehicle 1.4 ± 0.1): 1.5 ± 0.1
- Fresh organ to body weight ratio, Liver ([5]; 500 mg/kg/day, gastric gavage, 15 days, vehicle 5.2 ± 0.2): 5.9 ± 0.3
- % Body weight change (m ± SE) ([5]; 500 mg/kg/day, gastric gavage, 15 days, vehicle 20.4 ± 4.2): -8.1 ± 3.9%
- Dead/Treated ([5]; 1 g/kg/day for 15 days, oral, in adraganth gum): 3/12
- % Body weight change ([5]; 1 g/kg/day for 15 days, oral, in adraganth gum, vehicle 25.04 ± 1.18): 16.27 ± 1.31%
- Dead/Treated ([5]; 1 g/kg/day for 15 days, oral, in water): 2/12
- % Body weight change ([5]; 1 g/kg/day for 15 days, oral, in water, vehicle 24.54 ± 0.64): 18.5 ± 0.75%
- SGPT ([5]; oral, in adraganth gum, vehicle 6): 10 Units/ml
- SGOT ([5]; oral, in adraganth gum, vehicle 119): 132 Units/ml
- SGPT ([5]; oral, in water, vehicle 4): 9 Units/ml
- SGOT ([5]; oral, in water, vehicle 116): 124 Units/ml
- Average percent weight of fresh organs (m ± SE), Lung ([6]; 5 animals, NS, vehicle 0.85 ± 0.06): 1.08 ± 0.09%
- Average percent weight of fresh organs (m ± SE), Kidneys ([6]; 5 animals, NS, vehicle 0.95 ± 0.04): 1.04 ± 0.3%
- Average percent weight of fresh organs (m ± SE), Liver ([6]; 5 animals, vehicle 3.45 ± 0.07): 4.54 ± 0.10%
- Dead/Treated ([6]; death caused by a mistake in esophagus incannulation): 1/6
- Body weight in g (m ± SE), Termination ([6]; start 204.1 ± 2.0, vehicle 200.0 ± 4.1 to 233.2 ± 5.1): 210.6 ± 9.6 g
- Chronic toxicity [7]: very satisfactory
- malformations [8]: No malformations in either group were observed
- number of young delivered live at birth [8]: comparable with controls
- dysentery symptoms of diseased members (swine dysentery): the diseased members became free from dysentery symptoms
- spread of the disease (swine dysentery): The spread of the disease was halted
- Improvement, % (body weight gain) ([9]; 100 g/ton of feed, 28 days, combined average vs ration without G 8): 3.1%
- Improvement, % (feed/gain ratio) ([9]; 100 g/ton of feed, 28 days, vs ration without G 8): 2.8%
- Feed/gain ratio ([9]; 100 g/ton of feed, 28 days, without G 8: 1.82): 1.77
- Body weight gain/swine, Females ([9]; 100 g/ton of feed, 28 days, without G 8: 5740 g): 5880 g
- Body weight gain/swine, Combined average ([9]; 100 g/ton of feed, 28 days, without G 8: 6000): 6190
- Body weight gain/swine, Males ([9]; 100 g/ton of feed, 28 days, without G 8: 6150 g): 6480 g
- growth promoting action ([9]; qualitative statement): effective growth promoting factor
- order of acute toxicity [10]: low order toxicity
- order of acute toxicity ([10]; listed as G8): low order of toxicity
